# Results: paper PMC11864979, “First-in-class ultralong-target-residence-time p38α inhibitors as a mitosis-targeted therapy for colorectal cancer” (Nature Cancer, 2025)
# Values joined by “and” are separate entries in the source; they are usually repeats but may differ in a detail not shown here. Equal entries are not always repeated. Where two headings read alike, the source gives them in different places.
# How the values were obtained:
# HT-29 = assay: cell viability in human CRC cell line HT-29; format: cell-based; conditions: for HT-29 Cell viability (%) / viability at 0.0137 µM / viability at 0.0412 µM / viability at 0.1235 µM / viability at 0.3704 µM / viability at 1.1111 µM / viability at 3.3333 µM / viability at 10 µM: ED Fig. 9h, replicates; for viability at 0.0137 µM: HT-29, 0.0137 µM; for viability at 0.0137 µM / viability at 0.0412 µM / viability at 0.1235 µM / viability at 0.3704 µM / viability at 1.1111 µM / viability at 3.3333 µM / viability at 10 µM: read-out: HT-29 Cell viability (%); for viability at 0.0412 µM: HT-29, 0.0412 µM; for viability at 0.1235 µM: HT-29, 0.1235 µM; for viability at 0.3704 µM: HT-29, 0.3704 µM; for viability at 1.1111 µM: HT-29, 1.1111 µM; for viability at 3.3333 µM: HT-29, 3.3333 µM; for viability at 10 µM: HT-29, 10.0000 µM
# Method: (§1) To generate KAP^2D cells, KAP organoids were isolated from Matrigel, fragmented by mechanical dissociation and plated without any extracellular matrix on common cell culture dishes. Phoenix-Eco packaging cells (CRL-3214), HCT-15 (CCL-225), HCT 116 (CCL-247), COLO 205 (CCL-222), LS 174T (CL-188), RKO (CRL-2577) and HT-29 (HTB-38) were obtained from the American Type Culture Collection. The cells were cultured at 37 °C and 7% CO2 with RPMI (KAP^2D cells) or DMEM (other cell lines), supplemented with 10% FBS and penicillin–streptomycin. KAP^2D cells were authenticated using PCR (Kras locus and Trp53 locus). Phoenix-Eco packaging cells and HCT-15, HCT 116, COLO 205, LS 174T, RKO and HT-29 cells were authenticated by the provider using short tandem repeat profiling. No commonly misidentified cell lines were used. Mycoplasma contamination was excluded by a PCR-based analysis.
# (§2) For in vitro treatment studies, organoids were mechanically dissociated and digested using TrypLE supplemented with 100 µg ml^−1 DNaseI and 10.5 µM Y-27632 dihydrochloride (Invitrogen) at 37 °C. A total of 1,000–2,000 single cells were plated per well in white 96-well plates (Greiner) in culture medium containing 10% GFR Matrigel or Cultrex BME. The treatment with doxycycline (5 µg ml^−1), pharmacological inhibitors or corresponding volumes of DMSO was started 24 h after plating. Doxycycline was obtained from Sigma-Aldrich. […] Cell viability was measured by means of CellTiter-Glo 3D or CellTiter-Glo 2.0 reagent (Promega) according to the manufacturers’ instructions and the Infinite M Plex reader (Tecan, i-control version 3.9.1 software). Results were normalized to vehicle (DMSO) or to shNC. For cell-doubling assays, the cell number was quantified at the corresponding time points using Guava EasyCyte flow cytometer (Luminex, CytoSoft v5.2 software).
# HCT 116 = assay: cell viability in human CRC cell line HCT 116; format: cell-based
# Method: as §1, §2
# PDO15 = assay: cell viability in patient-derived CRC organoids PDO15; format: cell-based, human
# Method: as §2
# PDO9 = assay: cell viability in patient-derived CRC organoids PDO9; format: cell-based, human
# Method: as §2
# PDO6 = assay: cell viability in patient-derived CRC organoids PDO6; format: cell-based, human
# Method: as §2
# PDO13 = assay: cell viability in patient-derived CRC organoids PDO13; format: cell-based, human
# Method: as §2
structure (smiles),measurement,setting,value
CNC(=O)c1ccc2c(c1)C(=O)c1ccc(Nc3ccc(F)c(NC(=O)C4CC4)c3)cc1CC2 [Compound 2015],HT-29 Cell viability (%),"HT-29; 3.3333 µM, Repetition",7.01% and 6.31%
same,HT-29 Cell viability (%),"HT-29; 3.3333 µM, first experiment",10.00% and 9.86%
same,HT-29 Cell viability (%),"HT-29; 10.0000 µM, Repetition",6.48% and 6.38%
same,HT-29 Cell viability (%),"HT-29; 10.0000 µM, first experiment",9.39% and 10.22%
same,IC50,"HT-29; Homo sapiens, 96 h, HT-29, 4 d of treatment",178 nM
same,viability at 0.0137 µM,"HT-29; Homo sapiens, Repetition",99.5%
same,viability at 0.0137 µM,"HT-29; Homo sapiens, first experiment",93.3%
same,viability at 0.0412 µM,"HT-29; Homo sapiens, Repetition",82.5%
same,viability at 0.0412 µM,"HT-29; Homo sapiens, first experiment",89.4%
same,viability at 0.1235 µM,"HT-29; Homo sapiens, Repetition",73%
same,viability at 0.1235 µM,"HT-29; Homo sapiens, first experiment",79.7%
same,viability at 0.3704 µM,"HT-29; Homo sapiens, Repetition",33.4%
same,viability at 0.3704 µM,"HT-29; Homo sapiens, first experiment",12.1%
same,viability at 1.1111 µM,"HT-29; Homo sapiens, Repetition",7.21%
same,viability at 1.1111 µM,"HT-29; Homo sapiens, first experiment",7.57%
same,viability at 3.3333 µM,"HT-29; Homo sapiens, Repetition",6.86%
same,viability at 3.3333 µM,"HT-29; Homo sapiens, first experiment",10.2%
same,viability at 10 µM,"HT-29; Homo sapiens, Repetition",6.64%
same,viability at 10 µM,"HT-29; Homo sapiens, first experiment",9.63%
same,HCT 116 Cell viability (%),"HCT 116; 0.0137 µM, 4 d",85.88% and 79.68% and 90.88% and 87.20%
same,HCT 116 Cell viability (%),"HCT 116; 0.0412 µM, 4 d",87.17% and 85.37% and 79.18% and 81.34% and 80.02%
same,HCT 116 Cell viability (%),"HCT 116; 0.1235 µM, 4 d",87.59% and 86.63% and 89.97% and 77.29% and 78.27%
same,HCT 116 Cell viability (%),"HCT 116; 0.3704 µM, 4 d",48.15% and 38.21% and 37.69% and 25.63% and 24.67% and 24.34%
same,HCT 116 Cell viability (%),"HCT 116; 1.1111 µM, 4 d",30.94% and 32.21% and 17.75% and 19.27% and 17.57%
same,IC50,"HCT 116; Homo sapiens, 96 h, HCT 116, 4 d of treatment",223 nM
same,viability at 0.0137 µM,"HCT 116; Homo sapiens, HCT-116, 96 h, 0.0137 µM, 4 d, read-out: HCT 116 Cell viability (%)",90.6%
same,viability at 0.0412 µM,"HCT 116; Homo sapiens, HCT-116, 96 h, 0.0412 µM, 4 d, read-out: HCT 116 Cell viability (%)",90.7%
same,viability at 0.1235 µM,"HCT 116; Homo sapiens, HCT-116, 96 h, 0.1235 µM, 4 d, read-out: HCT 116 Cell viability (%)",90.7%
same,viability at 1.1111 µM,"HCT 116; Homo sapiens, HCT-116, 96 h, 1.1111 µM, 4 d",28.5%
same,viability at 0.5 µM,"PDO15; Homo sapiens, 96 h, PDO15, 0.5 µM, 4 d, read-out: Cell viability (%)",77.8%
same,viability at 1 µM,"PDO15; Homo sapiens, 96 h, PDO15, 1 µM, 4 days, read-out: Cell viability (%)",42.9%
same,Cell viability (%),"PDO15; PDO15, 0.5 µM, 4 d, 0.5 µM",81.70% and 63.83%
same,Cell viability (%),"PDO15; PDO15, 1 µM, 4 days, 1 µM",57.05% and 51.26%
same,viability at 0.5 µM,"PDO9; Homo sapiens, 96 h, PDO9, 0.5 µM, 4 d, read-out: Cell viability (%)",20.8%
same,viability at 1 µM,"PDO9; Homo sapiens, 96 h, PDO9, 1 µM, 4 days",9.78%
same,Cell viability (%),"PDO9; PDO9, 0.5 µM, 4 d, 0.5 µM",30.12% and 37.18%
same,Cell viability (%),"PDO9; PDO9, 1 µM, 4 days, 1 µM",8.84% and 14.14%
same,viability at 0.5 µM,"PDO6; Homo sapiens, 96 h, PDO6, 0.5 µM, 4 d",20.6%
same,Cell viability (%),"PDO6; PDO6, 0.5 µM, 4 d, 0.5 µM",31.27% and 20.78%
same,Cell viability (%),"PDO6; PDO6, 1 µM, 4 days, 1 µM",11.74% and 11.40% and 5.21%
same,viability at 0.5 µM,"PDO13; Homo sapiens, 96 h, PDO13, 0.5 µM, 4 d, read-out: Cell viability (%)",25.4%
same,viability at 1 µM,"PDO13; Homo sapiens, 96 h, PDO13, 1 µM, 4 days, read-out: Cell viability (%)",27.4%
same,Cell viability (%),"PDO13; PDO13, 0.5 µM, 4 d, 0.5 µM",27.09% and 31.57%
same,Cell viability (%),"PDO13; PDO13, 1 µM, 4 days, 1 µM",24.42% and 28.18%
